# Test results published in patent publication EP0054589B1, “Organic phosphoric acid ester derivatives, a process for preparing the same and insecticidal, miticidal or nematocidal compositions containing the same” (priority 1980, dated 1982).
# Tests used:
# rice stem borer [1] = settings: U.S. Patent No. 3,969,438; cited from earlier work
# diamond back moth [2] = settings: U.S. Patent No. 3,969,438; cited from earlier work
# apple leaf miner = settings: U.S. Patent No. 3,969,438; cited from earlier work
# smaller tea tortrix = settings: U.S. Patent No. 3,969,438; cited from earlier work
# tobacco cutworm [3] = settings: U.S. Patent No. 3,969,438; cited from earlier work
# carmine mites = experiment: Miticidal effect on carmine mite (sprayed kidney bean seedling); format: in vivo, Tetranychus cinnabarius; settings: 500 ppm
# Protocol: An emulsifiable concentrate prepared as described in Formulation Example 1 and diluted to a predetermined concentration was sprayed using a spray-gun on a seedling of a kidney bean placed in a pot of 12 cm in diameter to which plant carmine mites were parasitic. After drying in air, seedlings were kept in a green house, and the number of living insects was recorded on the 7th, 14th, 21st and 28th day from the day of application to determine the control effects. Three pots were used for each treatment. The control effect was assessed by the following formula: [formula] • wherein Σ indicates sum and Cb, Tb, Cai and Tai have the following meanings. • Cb: Number of living mites in non-treated sample before application. • Tb: Number of living mites in treated sample before application. • Cai: Number of living mites in non-treated sample 7th, 14th, 21 st or 28th day from the application. • Tai: Number of living mites in treated sample 7th, 14th, 21st or 28th day from the application.
# egg plant [4] = experiment: Phytotoxicity observed visually in the mite test on egg plant; format: in vivo; parameters: key: —: None; +: Slightly toxic; ++: Toxic; +++: Strongly toxic; settings: 500 ppm, observed visually on the 7th day after the application
# Protocol: (§1) (A) An emulsifiable concentrate prepared as described in Formulation Example 1 and diluted to a predetermined concentration was sprayed using a spray-gun on a seedling of an egg plant placed in a pot of 12 cm in diametre to which plant carmine mites resistant to Kelthane were parasitic. After drying in air, seedlings were kept in a green house, and the number of living insects was recorded on the 7th, 14th, 21 st and 28th day from the day of application to determine the control effects. Three pots were used for each treatment. The control effect was assessed by the formula described in TEST EXAMPLE 7 above. Further, phytotoxicity was observed visually on the 7th day after the application.
# as §1, with “(B) An” for “(A) An”, “Example 3” for “Example 1”, “in diameter” for “in diametre”, “in Test” for “in TEST”
# [5] = system: carmine mites resistant to Kelthane; experiment: Miticidal effect on carmine mite resistant to Kelthane (sprayed egg plant seedling); format: in vivo, Tetranychus cinnabarius; settings: 500 ppm; for Number of Living Mites after Application 7th Day / Number of Living Mites after Application 14th Day / Number of Living Mites after Application 21st Day / Number of Living Mites after Application 28th Day: egg plant seedling; for Control Effect (%): from mite counts on 7th, 14th, 21st and 28th day
# Protocol: as §1
# as §1, with “(B) An” for “(A) An”, “Example 3” for “Example 1”, “in diameter” for “in diametre”, “in Test” for “in TEST”
# diamond back moth [6] = experiment: Insecticidal effect on diamond-back moth (cabbage leaf dip); format: in vivo, Plutella xylostella; settings: Table 7; 100 ppm; after 72 hours, 25°C; emulsifiable concentrate as Formulation Example 1
# Outline: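 Cabbage leaves dipped 10 s in water-diluted emulsifiable concentrate at set concentration, air-dried; thirty 3rd-instar diamond-back moth larvae per cup held at 25°C. Percent mortality scored after 72 h, three replicates per treatment.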
# rice stem borer [7] = experiment: Insecticidal effect on rice stem borer, 3rd-instar larvae (rice seedling dip); format: in vivo, Chilo suppressalis; settings: Table 1; 500 ppm; after 72 hours, 25°C; wettable powder as Formulation Example 5
# Outline: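 Wettable-powder formulations were diluted in water to set concentrations, and rice seedlings were dipped in them. Ten 3rd-instar larvae were placed per capped cup with the treated seedlings and held at 25°C.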
# Tomato = experiment: Phytotoxicity on various crops; format: in vivo; parameters: key: Symbol — indicates that no toxicity was observed; settings: 500 ppm sprayed; checked visually after 10 days
# Outline: (§2)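 Test compounds, formulated as emulsifiable concentrates and brought to 500 ppm active in water, were sprayed onto the crops in sufficient amount. After ten days in the greenhouse, crop injury was inspected visually.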
# Tea = experiment: Phytotoxicity on various crops; format: in vivo; parameters: key: Symbol — indicates that no toxicity was observed; settings: 500 ppm sprayed; checked visually after 10 days
# Outline: as §2
# Cabbage = experiment: Phytotoxicity on various crops; format: in vivo; parameters: key: Symbol — indicates that no toxicity was observed; settings: 500 ppm sprayed; checked visually after 10 days
# Outline: as §2
# Apple = experiment: Phytotoxicity on various crops; format: in vivo; parameters: key: Symbol — indicates that no toxicity was observed; settings: 500 ppm sprayed; checked visually after 10 days
# Outline: as §2
# Green Pepper = experiment: Phytotoxicity on various crops; format: in vivo; parameters: key: Symbol — indicates that no toxicity was observed; settings: 500 ppm sprayed; checked visually after 10 days
# Outline: as §2
# Kidney Bean = experiment: Phytotoxicity on various crops; format: in vivo; parameters: key: Symbol — indicates that no toxicity was observed; settings: 500 ppm sprayed; checked visually after 10 days
# Outline: as §2
# Beet = experiment: Phytotoxicity on various crops; format: in vivo; parameters: key: Symbol — indicates that no toxicity was observed; settings: 500 ppm sprayed; checked visually after 10 days
# Outline: as §2
# Cotton = experiment: Phytotoxicity on various crops; format: in vivo; parameters: key: Symbol — indicates that no toxicity was observed; settings: 500 ppm sprayed; checked visually after 10 days
# Outline: as §2
# egg plant [8] = experiment: Phytotoxicity on various crops; format: in vivo; parameters: key: Symbol — indicates that no toxicity was observed; settings: 500 ppm sprayed; checked visually after 10 days
# Outline: as §2
# Rice = experiment: Phytotoxicity on various crops; format: in vivo; parameters: key: Symbol — indicates that no toxicity was observed; settings: 500 ppm sprayed; checked visually after 10 days
# Outline: as §2
# Cucumber = experiment: Phytotoxicity on various crops; format: in vivo; parameters: key: Symbol — indicates that no toxicity was observed; settings: 500 ppm sprayed; checked visually after 10 days
# Outline: as §2
# tobacco cutworm [9] = experiment: Insecticidal effect on tobacco cutworm (cabbage leaf dip); format: in vivo, Prodenia litura; settings: Table 3; 500 ppm; after 48 hours, 25°C; emulsifiable concentrate as Formulation Example 1
# Outline: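 Cabbage leaves dipped in water-diluted emulsifiable concentrate (two formulations, tests A and B) and air-dried were fed to 3rd-instar tobacco cutworm larvae at 25°C. Percent mortality scored after 48 hours; 3 replicates of 30 insects per compound.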
# [10] = Table 13, Formulation Example 1
# [11] = Table 14, Formulation Example 3
smiles,measurement,setting,value
CCCSP(=O)(OCC)Oc1ccc2c(C)cc(=O)oc2c1 (stereo not shown),pesticidal effect on rice stem borer,rice stem borer [1],to some extent
same,pesticidal effect on diamond back moth,diamond back moth [2],to some extent
same,pesticidal effect on apple leaf miner,apple leaf miner,less effective
same,pesticidal effect on smaller tea tortrix,smaller tea tortrix,to some extent
same,pesticidal effect on tobacco cutworm,tobacco cutworm [3],to some extent
"OC(c1ccc(Cl)cc1)(c1ccc(Cl)cc1)C(Cl)(Cl)Cl [Kelthane, 2,2,2-trichloro-1,1-bis(4-chlorophenyl)ethanol, reference compound]",Control Effect (%),"carmine mites; Table 12, from mite counts on 7th, 14th, 21st and 28th day",99.0%
same,Number of Living Mites after Application 7th Day,"carmine mites; Table 12, kidney bean seedling",0
same,Number of Living Mites after Application 14th Day,"carmine mites; Table 12, kidney bean seedling",0
same,Number of Living Mites after Application 21st Day,"carmine mites; Table 12, kidney bean seedling",5
same,Number of Living Mites after Application 28th Day,"carmine mites; Table 12, kidney bean seedling",15
same,Phytotoxicit,egg plant [4]; Table 13,+++(*)
same,Phytotoxicit,egg plant [4]; Table 14,+++(*)
same,Number of Living Mites after Application 7th Day,[5]; [10],32
same,Number of Living Mites after Application 14th Day,[5]; [10],0
same,Number of Living Mites after Application 21st Day,[5]; [10],118
same,Number of Living Mites after Application 28th Day,[5]; [10],269
same,Control Effect (%),[5]; Table 13,61.5%
same,Number of Living Mites after Application 7th Day,[5]; [11],31
same,Number of Living Mites after Application 14th Day,[5]; [11],58
same,Number of Living Mites after Application 21st Day,[5]; [11],156
same,Number of Living Mites after Application 28th Day,[5]; [11],301
same,Control Effect (%),[5]; Table 14,32.3%
CCOP(=O)(Oc1ccc2c(c1)OC(C)=CC2(C)C)SC(C)CC (stereo not shown) [compound 6],Control Effect (%),carmine mites,94.9%
same,Number of Living Mites after Application 7th Day,carmine mites,0
same,Number of Living Mites after Application 14th Day,carmine mites,0
same,Number of Living Mites after Application 21st Day,carmine mites,4
same,Number of Living Mites after Application 28th Day,carmine mites,45
same,Percent Mortality (%),diamond back moth [6],100%
same,Phytotoxicit,egg plant [4]; Table 13,—
same,Percent Mortality (%),rice stem borer [7],100%
same,Number of Living Mites after Application 7th Day,[5]; [10],0
same,Number of Living Mites after Application 14th Day,[5]; [10],0
same,Number of Living Mites after Application 21st Day,[5]; [10],10
same,Number of Living Mites after Application 28th Day,[5]; [10],54
same,Control Effect (%),[5]; Table 13,96.4%
same,Phytotoxicity: Tomato,Tomato,—
same,Phytotoxicity: Tea,Tea,—
same,Phytotoxicity: Cabbage,Cabbage,—
same,Phytotoxicity: Apple,Apple,—
same,Phytotoxicity: Green Pepper,Green Pepper,—
same,Phytotoxicity: Kidney Bean,Kidney Bean,—
same,Phytotoxicity: Beet,Beet,—
same,Phytotoxicity: Cotton,Cotton,—
same,Phytotoxicity: Egg Plant,egg plant [8],—
same,Phytotoxicity: Rice,Rice,—
same,Phytotoxicity: Cucumber,Cucumber,—
same,Percent Mortality (%),tobacco cutworm [9],100%
CCOP(=S)(Oc1ccc2c(c1)OC(C)=CC2(C)C)SC(C)CC (stereo not shown) [compound 11],Percent Mortality (%),diamond back moth [6],100%
same,Phytotoxicit,egg plant [4]; Table 13,—
same,Phytotoxicit,egg plant [4]; Table 14,—
same,Percent Mortality (%),rice stem borer [7],100%
same,Number of Living Mites after Application 7th Day,[5]; [10],0
same,Number of Living Mites after Application 14th Day,[5]; [10],3
same,Number of Living Mites after Application 21st Day,[5]; [10],10
same,Number of Living Mites after Application 28th Day,[5]; [10],48
same,Control Effect (%),[5]; Table 13,97.0%
same,Number of Living Mites after Application 7th Day,[5]; [11],0
same,Number of Living Mites after Application 14th Day,[5]; [11],2
same,Number of Living Mites after Application 21st Day,[5]; [11],17
same,Number of Living Mites after Application 28th Day,[5]; [11],56
same,Control Effect (%),[5]; Table 14,93.1%
same,Phytotoxicity: Tomato,Tomato,—
same,Phytotoxicity: Tea,Tea,—
same,Phytotoxicity: Cabbage,Cabbage,—
same,Phytotoxicity: Apple,Apple,—
same,Phytotoxicity: Green Pepper,Green Pepper,—
same,Phytotoxicity: Kidney Bean,Kidney Bean,—
same,Phytotoxicity: Beet,Beet,—
same,Phytotoxicity: Cotton,Cotton,—
same,Phytotoxicity: Egg Plant,egg plant [8],—
same,Phytotoxicity: Rice,Rice,—
same,Phytotoxicity: Cucumber,Cucumber,—
same,Percent Mortality (%),tobacco cutworm [9],100%
